Assay results from ChEMBL document CHEMBL1201862, “PubChem BioAssay data set” (2004).
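Cultured in 96-well plates, cells were exposed to test compound for 48 hours across five concentrations. The concentration for 50% growth inhibition is given as GI50.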 Active and inactive are the calls of the source. Cut-off read from the data, not from the text of the source: active = GI50 up to about 1.1 µM and inactive = higher.

Assays:
Assay in all cases: DTP human tumour cell line panel, 48 h
UACC-62 = test system: UACC-62
MDA-N = test system: MDA-N
SK-MEL-5 = test system: SK-MEL-5
COLO 205 = test system: COLO 205
UO-31 = test system: UO-31
CCRF-CEM = test system: CCRF-CEM
SK-MEL-2 = test system: SK-MEL-2
CAKI-1 = test system: CAKI-1
786-0 = test system: 786-0
SF-295 = test system: SF-295
Malme-3M = test system: Malme-3M
T47D = test system: T47D
SK-OV-3 = test system: SK-OV-3
DU-145 = test system: DU-145
BT-549 = test system: BT-549
IGROV-1 = test system: IGROV-1
OVCAR-5 = test system: OVCAR-5
SN12C = test system: SN12C
TK-10 = test system: TK-10
HOP-92 = test system: HOP-92
PC-3 = test system: PC-3
NCI/ADR-RES = test system: NCI/ADR-RES
SW-620 = test system: SW-620
OVCAR-8 = test system: OVCAR-8
LOX IMVI = test system: LOX IMVI
HCT-15 = test system: HCT-15
MCF7 = test system: MCF7
UACC-257 = test system: UACC-257
MDA-MB-231 = test system: MDA-MB-231
U-251 = test system: U-251
HL-60 = test system: HL-60
HT-29 = test system: HT-29
EKVX = test system: EKVX
A549 = test system: A549
RXF 393 = test system: RXF 393
SNB-75 = test system: SNB-75
HOP-62 = test system: HOP-62
M14 = test system: M14
SNB-19 = test system: SNB-19
SK-MEL-28 = test system: SK-MEL-28
RPMI-8226 = test system: RPMI-8226
HCT-116 = test system: HCT-116
A498 = test system: A498
KM12 = test system: KM12
Hs-578T = test system: Hs-578T
MDA-MB-435 = test system: MDA-MB-435
MOLT-4 = test system: MOLT-4
OVCAR-4 = test system: OVCAR-4
SR = test system: SR
NCI-H460 = test system: NCI-H460
SF-268 = test system: SF-268
OVCAR-3 = test system: OVCAR-3
NCI-H226 = test system: NCI-H226
ACHN = test system: ACHN
SF-539 = test system: SF-539
NCI-H23 = test system: NCI-H23
K562 = test system: K562
HCC 2998 = test system: HCC 2998

## CNC(=O)c1cc(NC(=O)N(CCC#N)CCN(C(=O)N[C@@H](Cc2ccccc2)C(=O)N[C@@H](CC(C)C)C(=O)NC)c2ccccc2)ccc1OC
UACC-62
  GI50: 23.2 µM (inactive)
MDA-N
  GI50: > 100 µM (inactive)
SK-MEL-5
  GI50: 29.9 µM (inactive)
COLO 205
  GI50: > 100 µM (inactive)
UO-31
  GI50: > 52 µM (inactive)
CCRF-CEM
  GI50: > 66.1 µM (inactive)
SK-MEL-2
  GI50: 31.8 µM (inactive)
CAKI-1
  GI50: > 81.1 µM (inactive)
786-0
  GI50: > 55.2 µM (inactive)
SF-295
  GI50: > 79.3 µM (inactive)
Malme-3M
  GI50: 17.3 µM (inactive)
T47D
  GI50: > 47.6 µM (inactive)
SK-OV-3
  GI50: > 100 µM (inactive)
DU-145
  GI50: > 54.8 µM (inactive)
BT-549
  GI50: > 69.5 µM (inactive)
IGROV-1
  GI50: 24.4 µM (inactive)
OVCAR-5
  GI50: > 100 µM (inactive)
SN12C
  GI50: > 51.6 µM (inactive)
TK-10
  GI50: > 72.6 µM (inactive)
HOP-92
  GI50: 20.9 µM (inactive)
PC-3
  GI50: > 80 µM (inactive)
NCI/ADR-RES
  GI50: > 100 µM (inactive)
SW-620
  GI50: > 100 µM (inactive)
OVCAR-8
  GI50: > 91.2 µM (inactive)
LOX IMVI
  GI50: 49.3 µM (inactive)
HCT-15
  GI50: > 100 µM
MCF7
  GI50: > 76 µM (inactive)
UACC-257
  GI50: 19.5 µM (inactive)
MDA-MB-231
  GI50: > 38.3 µM (inactive)
U-251
  GI50: > 100 µM (inactive)
HL-60
  GI50: 23.2 µM (inactive)
HT-29
  GI50: > 100 µM (inactive)
EKVX
  GI50: > 100 µM (inactive)
A549
  GI50: > 100 µM (inactive)
RXF 393
  GI50: > 54.6 µM (inactive)
SNB-75
  GI50: 49.3 µM (inactive)
HOP-62
  GI50: > 100 µM (inactive)
M14
  GI50: > 93.3 µM (inactive)
SNB-19
  GI50: > 59.2 µM (inactive)
SK-MEL-28
  GI50: 29.3 µM (inactive)
RPMI-8226
  GI50: 56.8 µM (inactive)
HCT-116
  GI50: > 63.7 µM (inactive)
A498
  GI50: > 49.5 µM (inactive)
KM12
  GI50: > 62.1 µM (inactive)
Hs-578T
  GI50: 58.7 µM (inactive)
MDA-MB-435
  GI50: > 100 µM (inactive)
MOLT-4
  GI50: 49.4 µM (inactive)
OVCAR-4
  GI50: > 100 µM (inactive)
SR
  GI50: 21 µM (inactive)
NCI-H460
  GI50: 15.8 µM (inactive)
SF-268
  GI50: 34.2 µM (inactive)
OVCAR-3
  GI50: > 65.8 µM (inactive)
NCI-H226
  GI50: > 100 µM (inactive)
ACHN
  GI50: > 74.8 µM (inactive)
SF-539
  GI50: 36 µM (inactive)
NCI-H23
  GI50: > 100 µM (inactive)

## CCCOC1OC(CS(=O)(=O)O)C(OC(C)=O)C(OC(C)=O)C1OC(C)=O (stereo not drawn)
UACC-62
  GI50: > 100 µM (inactive)
MDA-N
  GI50: > 100 µM (inactive)
SK-MEL-5
  GI50: > 100 µM (inactive)
COLO 205
  GI50: > 100 µM (inactive)
UO-31
  GI50: > 100 µM (inactive)
CCRF-CEM
  GI50: > 100 µM (inactive)
SK-MEL-2
  GI50: > 100 µM (inactive)
CAKI-1
  GI50: > 100 µM (inactive)
SF-295
  GI50: > 100 µM (inactive)
Malme-3M
  GI50: > 100 µM (inactive)
T47D
  GI50: > 100 µM (inactive)
SK-OV-3
  GI50: > 100 µM (inactive)
DU-145
  GI50: > 100 µM (inactive)
BT-549
  GI50: > 100 µM (inactive)
IGROV-1
  GI50: > 100 µM (inactive)
OVCAR-5
  GI50: > 100 µM (inactive)
K562
  GI50: > 100 µM (inactive)
SN12C
  GI50: > 100 µM (inactive)
TK-10
  GI50: > 100 µM (inactive)
HOP-92
  GI50: > 100 µM (inactive)
PC-3
  GI50: > 100 µM (inactive)
NCI/ADR-RES
  GI50: > 100 µM (inactive)
SW-620
  GI50: > 100 µM (inactive)
OVCAR-8
  GI50: > 100 µM (inactive)
LOX IMVI
  GI50: > 100 µM (inactive)
HCT-15
  GI50: > 100 µM
MCF7
  GI50: > 100 µM (inactive)
UACC-257
  GI50: > 100 µM (inactive)
MDA-MB-231
  GI50: > 100 µM (inactive)
U-251
  GI50: > 100 µM (inactive)
HL-60
  GI50: > 100 µM (inactive)
HT-29
  GI50: > 100 µM (inactive)
RXF 393
  GI50: > 100 µM (inactive)
SNB-75
  GI50: > 100 µM (inactive)
HOP-62
  GI50: > 100 µM (inactive)
M14
  GI50: > 100 µM (inactive)
SNB-19
  GI50: > 100 µM (inactive)
SK-MEL-28
  GI50: > 100 µM (inactive)
RPMI-8226
  GI50: > 100 µM (inactive)
HCT-116
  GI50: > 100 µM (inactive)
A498
  GI50: > 100 µM (inactive)
KM12
  GI50: > 100 µM (inactive)
Hs-578T
  GI50: > 100 µM (inactive)
MDA-MB-435
  GI50: > 100 µM (inactive)
MOLT-4
  GI50: > 100 µM (inactive)
OVCAR-4
  GI50: > 100 µM (inactive)
SR
  GI50: > 100 µM (inactive)
NCI-H460
  GI50: > 100 µM (inactive)
OVCAR-3
  GI50: > 100 µM (inactive)
HCC 2998
  GI50: > 100 µM (inactive)
NCI-H226
  GI50: > 100 µM (inactive)
NCI-H23
  GI50: > 100 µM (inactive)
